Here are results for eight compounds from PubChem BioAssay (NCI).

Test systems include NCI-H522 lung; RPMI-8226 leukemia; SW-620 colon; LOX IMVI melanoma; PC-3 prostate; HL-60(TB) leukemia; UACC-62 melanoma; RXF 393 renal; SR leukemia; SF-295 CNS; UACC-257 melanoma; A549 NSCLC; MOLT-4 leukemia; MDA-MB-231 breast; HS 578T breast; SK-MEL-2 melanoma; NCI-H226 lung; OVCAR-4 ovarian; T-47D breast; SK-OV-3 ovarian.
Assay in all cases: growth of human tumour cells (NCI), 48 h

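Compound exposure: 48 hours, 5 concentrations, 96-well plates. TGI is the concentration that stops growth completely.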

Regarding `CC(=O)Oc1cc(C)c(OC(C)=O)c2c1[C@H]1CC[C@]3(C)[C@@H](OC(C)=O)CC[C@H]3[C@@H]1CC2`, the TGI with NCI-H522 lung was 32.6 µM; in the assay on RPMI-8226 leukemia, 59.2 µM; with SW-620 colon it was 34.3 µM; in the assay on LOX IMVI melanoma, 29.3 µM; with PC-3 prostate, 26.9 µM; in the assay with HL-60(TB) leukemia, 56.7 µM. The TGI is 32.8 µM with UACC-62 melanoma; 33.9 µM in the assay on RXF 393 renal; > 100 µM with SR leukemia; 37.2 µM with SF-295 CNS; 30 µM in the assay on UACC-257 melanoma; 34.4 µM in the assay with A549 NSCLC. The values for the TGI in the assay with MOLT-4 leukemia, with MDA-MB-231 breast and in the assay with HS 578T breast were 33.7 µM, 32.7 µM and 57 µM, respectively.

On to `C[C@H](CCC(=O)O)[C@H]1CC[C@H]2[C@@H]3[C@H](O)C[C@@H]4C[C@H](O)CC[C@]4(C)[C@H]3CC[C@]12C`, for which the TGI in the assay with NCI-H522 lung was > 100 µM; in the assay with RPMI-8226 leukemia it was 54.8 µM; in the assay on SW-620 colon it was > 100 µM; with SK-MEL-2 melanoma, 53.5 µM; in the assay with NCI-H226 lung, 78.3 µM; in the assay with LOX IMVI melanoma, > 100 µM. Besides, the TGI was > 100 µM with PC-3 prostate; > 100 µM in the assay on HL-60(TB) leukemia; > 100 µM in the assay on UACC-62 melanoma; > 100 µM with RXF 393 renal; 47.4 µM in the assay with SR leukemia; > 100 µM in the assay with UACC-257 melanoma. Besides, the TGI with A549 NSCLC was > 100 µM; with MOLT-4 leukemia it was 62 µM; with OVCAR-4 ovarian it was > 100 µM; with MDA-MB-231 breast it was > 100 µM; in the assay with T-47D breast, > 100 µM.

Take `Cn1c(=O)cc(NCCc2ccccc2)[nH]c1=O`: the TGI with RPMI-8226 leukemia, with SW-620 colon, with SK-MEL-2 melanoma, in the assay on NCI-H226 lung, in the assay with LOX IMVI melanoma and in the assay with PC-3 prostate was > 100 µM throughout. Also, the TGI with UACC-62 melanoma was > 100 µM; with RXF 393 renal, > 100 µM; in the assay with SF-295 CNS, 97.6 µM; in the assay with UACC-257 melanoma, > 100 µM; in the assay on A549 NSCLC, > 100 µM; in the assay with MOLT-4 leukemia it was > 100 µM. Besides, the TGI in the assay with OVCAR-4 ovarian is > 100 µM; in the assay on MDA-MB-231 breast, 50 µM; in the assay on HS 578T breast it was 50.7 µM; with SK-OV-3 ovarian, > 100 µM; in the assay on T-47D breast, > 100 µM.

As for `CN(NC(=O)/C(=C\c1ccco1)NC(=O)c1ccccc1)c1cn[nH]c(=O)c1Cl`, the TGI with NCI-H522 lung is 89.3 µM; with RPMI-8226 leukemia it was 50.5 µM; with SW-620 colon, > 100 µM; in the assay with SK-MEL-2 melanoma, > 100 µM; in the assay with NCI-H226 lung it was > 100 µM; in the assay with LOX IMVI melanoma, 58.2 µM. Besides, the TGI with PC-3 prostate, in the assay with UACC-62 melanoma, in the assay on RXF 393 renal, with SR leukemia, in the assay with SF-295 CNS and in the assay with UACC-257 melanoma was > 100 µM in each case. Further, the TGI was > 100 µM with A549 NSCLC; 93.3 µM in the assay on MOLT-4 leukemia; > 100 µM in the assay with OVCAR-4 ovarian; > 100 µM in the assay on MDA-MB-231 breast; > 100 µM in the assay with HS 578T breast; > 100 µM with SK-OV-3 ovarian.

For the compound `Cc1nc2ncn3c(c-2c1Cc1ccccc1)NC=C(O)N3`, the TGI with NCI-H522 lung, in the assay on RPMI-8226 leukemia, with SW-620 colon, with SK-MEL-2 melanoma, with NCI-H226 lung and with PC-3 prostate was > 100 µM in each case. In addition, the TGI was > 100 µM in the assay with HL-60(TB) leukemia; > 100 µM in the assay on UACC-62 melanoma; 64 µM in the assay with RXF 393 renal; > 100 µM with SF-295 CNS; > 100 µM in the assay on UACC-257 melanoma; > 100 µM in the assay with A549 NSCLC. In addition, the TGI with MOLT-4 leukemia is > 100 µM; with OVCAR-4 ovarian, > 100 µM; with MDA-MB-231 breast, > 100 µM; in the assay on HS 578T breast it was > 100 µM; in the assay with SK-OV-3 ovarian it was > 100 µM; in the assay on T-47D breast it was 61.3 µM.

On to `Cc1n[nH]c(=O)n1/N=C/c1ccncc1`, for which the TGI with NCI-H522 lung, with SW-620 colon, in the assay with SK-MEL-2 melanoma, with NCI-H226 lung, with LOX IMVI melanoma and with UACC-62 melanoma was > 100 µM in each case. Further, the TGI in the assay with RXF 393 renal, with SF-295 CNS, in the assay on UACC-257 melanoma, with A549 NSCLC, in the assay with MOLT-4 leukemia and with OVCAR-4 ovarian was > 100 µM each time. In addition, the TGI in the assay with MDA-MB-231 breast, in the assay on HS 578T breast, with SK-OV-3 ovarian and in the assay on T-47D breast was > 100 µM in each case.

Take `O=C1CC(c2ccc(Cl)cc2)C2(C(=O)NC(=O)NC2=O)C(c2ccc(Cl)cc2)C1` (stereo not drawn): the TGI with NCI-H522 lung is 40.6 µM; in the assay on RPMI-8226 leukemia, 32.6 µM; in the assay on SW-620 colon, 67.4 µM; in the assay with SK-MEL-2 melanoma, 38.4 µM; in the assay on NCI-H226 lung it was 36.4 µM; in the assay on LOX IMVI melanoma, > 75 µM. In addition, the TGI in the assay on PC-3 prostate was > 75 µM; in the assay with HL-60(TB) leukemia, > 75 µM; in the assay with UACC-62 melanoma, > 75 µM; in the assay with RXF 393 renal, 52.2 µM; with SF-295 CNS it was > 75 µM; in the assay with UACC-257 melanoma, > 75 µM. In addition, the TGI is 41.3 µM with MOLT-4 leukemia, > 75 µM with OVCAR-4 ovarian, 34.8 µM in the assay on MDA-MB-231 breast and > 75 µM in the assay on T-47D breast.

As to `CCN(CC)c1ccc2cc(C(=O)Nc3nc(C45CC6CC(CC(C6)C4)C5)cs3)c(=O)oc2c1`, the TGI with NCI-H522 lung, in the assay with RPMI-8226 leukemia, in the assay on SW-620 colon, in the assay with NCI-H226 lung, in the assay on LOX IMVI melanoma and in the assay with PC-3 prostate was > 100 µM each time. For the same compound, the TGI with HL-60(TB) leukemia, in the assay with RXF 393 renal, with SR leukemia, with SF-295 CNS, in the assay on UACC-257 melanoma and in the assay on A549 NSCLC was > 100 µM throughout. Further, the TGI with MOLT-4 leukemia, with OVCAR-4 ovarian, in the assay with MDA-MB-231 breast and in the assay on HS 578T breast was > 100 µM in each case.
